Measurements published in US20250163038A1, “CBL-B MODULATORS AND USES THEREOF” (Nimbus Clio, Inc., priority 2021, published 2025).

Legend:
[1] = molecular target: Recombinant human Cbl-b (aa 36-427) (Homo sapiens, UniProt Q13191); experiment: Cbl-b Biochemical Assay (TR-FRET); settings: read-out: TR-FRET hCbl-b IC50
[2] = tested on: Jurkat (clone E6-1) cells with NFAT luciferase reporter; experiment: Jurkat reporter assay (NFAT Luciferase); assay type: cell-based; settings: Homo sapiens; Jurkat NFAT luciferase reporter cells, anti-CD3 stimulation, 6 hr; read-out: Jurkat NFAT EC50
[3] = molecular target: T1, Recombinant human c-Cbl (aa 47-435) (Homo sapiens, UniProt P22681); experiment: c-Cbl Biochemical Assay (TR-FRET); settings: hc-Cbl Biochemical Assay (TR-FRET); read-out: TR-FRET hcCbl IC50
T1 sequence (P22681 47-435): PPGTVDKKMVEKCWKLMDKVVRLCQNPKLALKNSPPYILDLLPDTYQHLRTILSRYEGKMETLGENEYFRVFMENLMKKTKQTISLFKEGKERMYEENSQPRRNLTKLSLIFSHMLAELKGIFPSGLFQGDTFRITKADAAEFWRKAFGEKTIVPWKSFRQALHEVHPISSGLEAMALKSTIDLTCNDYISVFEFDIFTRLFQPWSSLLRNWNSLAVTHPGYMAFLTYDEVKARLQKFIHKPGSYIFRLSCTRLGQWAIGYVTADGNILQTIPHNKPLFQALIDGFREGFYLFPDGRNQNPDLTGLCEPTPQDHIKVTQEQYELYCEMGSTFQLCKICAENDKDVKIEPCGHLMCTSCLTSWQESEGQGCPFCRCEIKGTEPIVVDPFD

Recombinant human Cbl-b (aa 36-427), sequence (Q13191 36-427): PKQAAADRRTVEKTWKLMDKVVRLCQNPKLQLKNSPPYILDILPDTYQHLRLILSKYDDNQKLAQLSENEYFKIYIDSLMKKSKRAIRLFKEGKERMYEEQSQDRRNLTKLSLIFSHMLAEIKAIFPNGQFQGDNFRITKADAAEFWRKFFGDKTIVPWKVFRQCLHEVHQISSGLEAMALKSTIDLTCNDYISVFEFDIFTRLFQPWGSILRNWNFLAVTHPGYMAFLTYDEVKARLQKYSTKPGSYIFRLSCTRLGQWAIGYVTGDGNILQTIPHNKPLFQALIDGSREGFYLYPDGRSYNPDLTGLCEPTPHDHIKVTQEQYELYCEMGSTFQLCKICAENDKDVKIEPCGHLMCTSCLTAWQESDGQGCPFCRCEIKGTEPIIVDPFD

IC50 [1] [nM] | EC50 [2] [nM] | IC50 [3] [nM] | SMILES
200 to 1000 | 1000 to 10000 | 1000 to 10000 | C[C@@H]1CCCN(Cc2cc(C(F)(F)F)c3oc(-c4cc(-c5ccccc5-c5nncn5C)cc(C5CC5)n4)nc3c2)C1 [AAQ-2, 2-{6-Cyclopropyl-4-[2-(4-methyl-1,2,4-triazol-3-yl)phenyl]pyridin-2-yl}-5-{[(3R)-3-methylpiperidin-1-yl]methyl}-7-(trifluoromethyl)-1,3-benzoxazole]
< 200 | < 200 | < 200 | Cc1c(F)c(CNCC2(O)CCC2)cc2nc(-c3cc(-c4ccc(F)cc4-c4nncn4C)cc(C4CC4)n3)oc12 [AHJ-1, 1-({[(2-{6-cyclopropyl-4-[4-fluoro-2-(4-methyl-1,2,4-triazol-3-yl)phenyl]pyridin-2-yl}-6-fluoro-7-methyl-1,3-benzoxazol-5-yl)methyl]amino}methyl)cyclobutan-1-ol]
< 200 | < 200 | < 200 | COCCNCc1cc(C(F)(F)F)c2[nH]c(-c3cc(-c4ccc(F)cc4-c4nncn4C)cc(C4CC4)n3)nc2c1 [ADW-1, [(2-{6-Cyclopropyl-4-[4-fluoro-2-(4-methyl-1,2,4-triazol-3-yl)phenyl]pyridin-2-yl}-7-(trifluoromethyl)-1H-1,3-benzodiazol-5-yl)methyl](2-methoxyethyl)amine]
< 200 | < 200 | < 200 | Cn1cnnc1-c1cc(F)ccc1-c1cc(-c2nc3cc(CN[C@@H]4CCC[C@@H]4O)cc(C(F)(F)F)c3o2)nc(C2CC2)c1 [ADA-6, (1S,2R)-2-{[(2-{6-Cyclopropyl-4-[4-fluoro-2-(4-methyl-1,2,4-triazol-3-yl)phenyl]pyridin-2-yl}-7-(trifluoromethyl)-1,3-benzoxazol-5-yl)methyl]amino}cyclopentan-1-ol]
1000 to 10000 | 1000 to 10000 | 1000 to 10000 | Cn1cnnc1-c1cc(F)ccc1-c1cccc(-c2nc3cc(C(NCC4CCC4)C(F)(F)F)cc(C4CC4)c3o2)c1 (racemic) [IO-4, rac-N-(Cyclobutylmethyl)-1-(7-cyclopropyl-2-(4′-fluoro-2′-(4-methyl-4H-1,2,4-triazol-3-yl)-[1,1′-biphenyl]-3-yl)benzo[d]oxazol-5-yl)-2,2,2-trifluoroethan-1-amine]
< 200 | < 200 | < 200 | COc1cc(CNCC2CCC2)cc2nc(-c3cccc(-c4ccc(F)cc4-c4nncn4C)c3)oc12 [FA-1, 1-Cyclobutyl-N-((2-(4′-fluoro-2′-(4-methyl-4H-1,2,4-triazol-3-yl)-[1,1′-biphenyl]-3-yl)-7-methoxybenzo[d]oxazol-5-yl)methyl)methanamine]
200 to 1000 | 1000 to 10000 | 200 to 1000 | C[C@H](c1cc(C(F)(F)F)c2[nH]c(-c3cccc(C4(Cc5nncn5C)COC4)c3)nc2c1)N1CCC2(CC2)C1 [ACN-1, (R)-5-(1-(5-Azaspiro[2.4]heptan-5-yl)ethyl)-2-(3-(3-((4-methyl-4H-1,2,4-triazol-3-yl)methyl)oxetan-3-yl)phenyl)-7-(trifluoromethyl)-1H-benzo[d]imidazole]
< 200 | 1000 to 10000 | 1000 to 10000 | Cn1cnnc1-c1ccccc1-c1cc(-c2nc3cc(CN4CCC5(CC5)C4)cc(C(F)(F)F)c3o2)nc(C2CC2)c1 [AAR-2, 5-{5-Azaspiro[2.4]-heptan-5-ylmethyl}-2-{6-cyclopropyl-4-[2-(4-methyl-1,2,4-triazol-3-yl)-phenyl]-pyridin-2-yl}-7-(trifluoromethyl)-1,3-benzoxazole]
< 200 | 200 to 1000 | < 200 | Cn1cnnc1-c1cc(F)ccc1-c1cccc(-c2nc3cc(CNC[C@@H]4CCC(=O)N4)cc(C(F)(F)F)c3o2)c1 [CU-2, (S)-5-((((2-(4′-Fluoro-2′-(4-methyl-4H-1,2,4-triazol-3-yl)-[1,1′-biphenyl]-3-yl)-7-(trifluoromethyl)benzo[d]oxazol-5-yl)methyl)amino)methyl)pyrrolidin-2-one]
< 200 | 200 to 1000 | 1000 to 10000 | Cn1cnnc1-c1cc(F)ccc1-c1cccc(-c2nc3cc(CNCC(C)(C)O)cc(C(F)(F)F)c3[nH]2)c1 [BT-1, 1-(((2-(4′-Fluoro-2′-(4-methyl-4H-1,2,4-triazol-3-yl)-[1,1′-biphenyl]-3-yl)-7-(trifluoromethyl)-1H-benzo[d]imidazol-5-yl)methyl)amino)-2-methylpropan-2-ol]
200 to 1000 | 1000 to 10000 | 200 to 1000 | Cn1cnnc1-c1cc(C#N)ccc1-c1cc(-c2nc3cc(CN4C[C@@H]5C[C@H]4CO5)cc(F)c3o2)nc(C2CC2)c1 [AGH-4, 4-(2-Cyclopropyl-6-{7-fluoro-5-[(1S,4S)-2-oxa-5-azabicyclo[2.2.1]heptan-5-ylmethyl]-1,3-benzoxazol-2-yl}pyridin-4-yl)-3-(4-methyl-1,2,4-triazol-3-yl)benzonitrile]
< 200 | < 200 | < 200 | [2H]C([2H])(N[C@@H]1CCC[C@@H]1O)c1cc(C(F)(F)F)c2oc(-c3cccc(-c4ccc(F)cc4-c4nncn4C)c3)nc2c1 [HA-3, (1S,2R)-2-(((2-(4′-Fluoro-2′-(4-methyl-4H-1,2,4-triazol-3-yl)-[1,1′-biphenyl]-3-yl)-7-(trifluoromethyl)benzo[d]oxazol-5-yl)methyl-d2)amino)cyclopentan-1-ol]
< 200 | 1000 to 10000 | 200 to 1000 | Cn1cnnc1-c1cc(F)ccc1-c1cccc(-c2nc3cc(CN)cc(C(F)(F)F)c3o2)c1 [EB-1, (2-(4′-Fluoro-2′-(4-methyl-4H-1,2,4-triazol-3-yl)-[1,1′-biphenyl]-3-yl)-7-(trifluoromethyl)benzo[d]oxazol-5-yl)methanamine]
< 200 | 1000 to 10000 | 1000 to 10000 | C[C@H]1CCCN(Cc2cc(C(F)(F)F)c3oc(-c4cccc([C@]5(c6nncn6C)C[C@@H](C)C5)c4)nc3c2)C1 [AAY-2, 5-{[(3S)-3-Methylpiperidin-1-yl]methyl}-2-{3-[(1r,3s)-3-methyl-1-(4-methyl-1,2,4-triazol-3-yl)cyclobutyl]phenyl}-7-(trifluoromethyl)-1,3-benzoxazole]
< 200 | 200 to 1000 | 1000 to 10000 | Cn1cnnc1-c1cc(F)ccc1-c1cccc(-c2nc3cc(CN[C@H]4CCC[C@@H]4O)cc(C(F)(F)F)c3[nH]2)c1 [BN-2, (1S,2S)-2-(((2-(4′-Fluoro-2′-(4-methyl-4H-1,2,4-triazol-3-yl)-[1,1′-biphenyl]-3-yl)-7-(trifluoromethyl)-1H-benzo[d]imidazol-5-yl)methyl)amino)cyclopentan-1-ol]
< 200 | 200 to 1000 | 1000 to 10000 | C[C@H]1CCCN(Cc2cc(C(F)(F)F)c3oc(-c4cccc(-c5ccc(F)cc5-c5nncn5C)c4)nc3c2)C1 [Example U-1, (S)-2-(4′-Fluoro-2′-(4-methyl-4H-1,2,4-triazol-3-yl)-[1,1′-biphenyl]-3-yl)-5-((3-methylpiperidin-1-yl)methyl)-7-(trifluoromethyl)benzo[d]oxazole]
< 200 | < 200 | < 200 | Cn1cnnc1-c1cc(F)ccc1-c1cccc(-c2nc3cc(CN[C@@H]4CCC[C@@]4(O)C(F)(F)F)cc(C(F)(F)F)c3o2)c1 [JI-3, (1S,2R)-2-(((2-(4′-Fluoro-2′-(4-methyl-4H-1,2,4-triazol-3-yl)-[1,1′-biphenyl]-3-yl)-7-(trifluoromethyl)benzo[d]oxazol-5-yl)methyl)amino)-1-(trifluoromethyl)cyclopentan-1-ol]
< 200 | 200 to 1000 | < 200 | Cn1cnnc1-c1cc(F)ccc1-c1cccc(-c2nc3cc(CNCCC4CCCC4)cc(C(F)(F)F)c3o2)c1 [HN-1, 2-Cyclopentyl-N-((2-(4′-fluoro-2′-(4-methyl-4H-1,2,4-triazol-3-yl)-[1,1′-biphenyl]-3-yl)-7-(trifluoromethyl)benzo[d]oxazol-5-yl)methyl)ethan-1-amine]
< 200 | < 200 | < 200 | Cn1cnnc1-c1cc(F)ccc1-c1cccc(-c2nc3cc(CNCC4CCC4)c(F)c(F)c3o2)c1 [IX-1, 1-Cyclobutyl-N-((6,7-difluoro-2-(4′-fluoro-2′-(4-methyl-4H-1,2,4-triazol-3-yl)-[1,1′-biphenyl]-3-yl)benzo[d]oxazol-5-yl)methyl)methanamine]
200 to 1000 | 10000 to 50000 | 1000 to 10000 | COCCN(C)Cc1cc(OC)c2oc(-c3cccc(-c4ccc(F)cc4-c4nncn4C)c3)nc2c1 [GM-2, N-((2-(4′-Fluoro-2′-(4-methyl-4H-1,2,4-triazol-3-yl)-[1,1′-biphenyl]-3-yl)-7-methoxybenzo[d]oxazol-5-yl)methyl)-2-methoxy-N-methylethan-1-amine]

SMILES | IC50 [1] [nM] | EC50 [2] [nM] | IC50 [3] [nM]
Cn1cnnc1-c1cc(Cl)ccc1-c1cccc(-c2nc3cc(CN[C@@H]4CCC[C@@H]4O)cc(C(F)(F)F)c3o2)c1 [ADI-3, (1S,2R)-2-[({2-[4′-Chloro-2′-(4-methyl-1,2,4-triazol-3-yl)-[1,1′-biphenyl]-3-yl]-7-(trifluoromethyl)-1,3-benzoxazol-5-yl}methyl)amino]cyclopentan-1-ol] | < 200 | < 200 | < 200
